This is an account of results in publication PMC8115619, “Generation of a chemical genetic model for JAK3” (Scientific Reports, 2021).

The IC50 is the concentration that inhibits the measured activity by half. A high value points to a need for much substance.

The subject of assay [1] is IL-4 induced STAT6 phosphorylation in wild type BMDMs. Nature of the assay: IL-4 induced STAT6 phosphorylation in wild type BMDMs (immunoblot). The assay is classed as cell-based. Conditions: Mus musculus, BMDM, 0.5 h; 10 ng/ml IL-4 30 min, pSTAT6 Tyr641 immunoblot, two independent experiments. The method, then:
(§1) Figure 3 Effect of JAK3 inhibitors on IL-4 induced STAT6 phosphorylation. BMDMs were isolated from wild type and JAK3 Cys905Ser knockin mice. Cells were incubated with the indicated concentrations of inhibitor before stimulation for 30 min with 10 ng/ml IL-4. Cells were lysed and the levels of STAT6 phosphorylated at Tyr641 were assessed by immunoblotting. Levels of ERK1/2 were determined as a loading control.
(§2) Bone marrow derived macrophages (BMDMs) were cultured as described. Briefly, bone marrow was flushed in PBS from the femurs and tibias of mice. Cells were cultured on bacterial grade plastic for 7 days at 37 °C, 5% CO2. Cells were then detached using Versene (Gibco), re-plated on tissue culture plastic in BMDM media (in DMEM supplemented with 10% heat inactivated FBS (Labtech), 2 mM L-glutamine, 100 U/ml penicillin G, 100 μg/ml streptomycin and 0.25 μg/ml amphotericin, 5 ng/ml M-CSF) and used within 48 h. Where indicated cells were stimulated with 10 ng/ml IL-4, 10 ng/ml GM-CSF, 10 ng/ml IL-10 or 10 ng/ml IFNβ. All cytokines were from PeproTech.
(§3) Cells were lysed directly into SDS sample buffer and aliquots run on 10% polyacrylamide gels using standard methods. Proteins were transferred onto nitrocellulose membranes, and specific proteins were detected by immunoblotting. Antibodies against tyrosine phosphorylated STATs were from Cell Signaling Technology (phospho-STAT1 #9167, phospho-STAT3 #9131, phospho-STAT5 #4322 and phospho-STAT6 #9361). The total ERK1/2 antibody used as a loading control was also from cell Signaling Technology (#4695). HRP-conjugated secondary antibodies were obtained from Pierce. Bands were detected using Clarity ECL reagents from BioRad and imaged on a Licor Odyssey Fc system. Quantification was carried out using Licor Image Studio software. After correction for the ERK1/2 levels to account for loading differences, percentage inhibition was calculated relative to the IL-4 stimulated condition. IC50 values were calculated using the same methods as for the in vitro IC50 values.
Background: Immunoblotting shows a protein as a band on a membrane.

Assay [2] relates to IL-4 induced STAT6 phosphorylation in BMDMs from JAK3 Cys905Ser knockin mice. Nature of the assay: IL-4 induced STAT6 phosphorylation in JAK3 Cys905Ser knockin BMDMs (immunoblot). The note with it: Mus musculus, BMDM, 0.5 h; 10 ng/ml IL-4 30 min, pSTAT6 Tyr641 immunoblot, two independent experiments. The assay is classed as cell-based, mouse. The method, then:
as §1, §2, §3

For assay [3], the system named is IL-4 induced STAT6 phosphorylation in wild type BMDMs. In words: Inhibitor washout, IL-4 induced STAT6 phosphorylation, wild type BMDMs. The assay is classed as cell-based, mouse. Conditions: inhibitor 2 h, 0.5 μM Ruxolitinib. How it is done: Covalent inhibitors would be predicted to have very slow off rates and therefore inhibition should remain even if the unbound inhibitors are washed out of the cells. To test this, cells were treated with a high concentration of inhibitor for 2 h before being washed 3 times in PBS and then incubated in media without inhibitor for 0.5 to 24 h. If the inhibitor acts via a non-covalent mechanism, inhibition would not be expected to remain following washout from the cells. Ruxolitinib is a non-covalent pan-JAK inhibitor that can inhibit multiple JAK-STAT pathways in macrophages. […] To confirm this was not the case, similar experiments were done in JAK3 Cys905Ser knockin cells. […] Similar experiments were also carried out with PF-06651600. […] As the level of inhibition was lower at 2 h post washout than 30 min the experiment was repeated to look at 4 and 24 h time points for the washout step.
Figure 4 Effect of inhibitor washout on JAK3 inhibition. BMDMs were isolated from wild type and JAK3 Cys905Ser knockin mice. […] The macrophages were then either stimulated with 10 ng/ml IL-4 for 30 min or washed 3 times in PBS and then incubated in media without inhibitor for the indicated times. The cells were then stimulated with IL-4 for 30 min and STAT6 phosphorylation determined by immunoblotting using levels of ERK1/2 as a loading control.
as §2, §3

As to `CN(C)C(=O)/C(C#N)=C/c1ccc(-c2nc3cnc4[nH]ccc4c3n2C2CCCCC2)o1` [FM-381, reference compound], the figures for the IC50 in assay [1] and in assay [2] were 0.18 µM and 0.89 µM, respectively.

As to `N#CC[C@H](C1CCCC1)n1cc(-c2ncnc3[nH]ccc23)cn1` [Ruxolitinib], the “block of IL-4 induced STAT6 phosphorylation without washout, wild type BMDMs” value in assay [3] (no washout, 10 μM TL6-144) is given as “completely block”. Further, in assay [3] (washed 3 times in PBS, IL-4 30 min to 2 h after washout, 10 μM TL6-144, 100 μM PF-06651600), the “inhibition of IL-4 induced STAT6 phosphorylation after inhibitor washout, wild type BMDMs” value is “completely lost”.
